The values below come from patent US10774086B2, “GSK-3 inhibitors” (BRISTOL-MYERS SQUIBB COMPANY, priority 2016, dated 2020).

One experiment addresses GSK3α (Homo sapiens (Human), UniProt P49840). Kind of experiment: GSK3α kinase assay (Caliper LabChip, fluoresceinated peptide substrate). It counts as biochemical. The following applies: 250 pM enzyme, 20 uM ATP, 1.5 uM peptide, 20 hours room temperature; read-out: GSK3α IC50 (second value of GSK3β/GSK3α). From the text:
IC50 values were derived by non-linear regression analysis.

The target in a further experiment is GSK3β (Homo sapiens (Human), UniProt P49841). Kind of experiment: GSK3β kinase assay (Caliper LabChip, fluoresceinated peptide substrate). It counts as biochemical. The settings on record: 250 pM enzyme, 20 uM ATP, 1.5 uM peptide, 20 hours room temperature; read-out: GSK3β IC50 (first value of GSK3β/GSK3α).
Sequence of GSK3β (P49841 whole entry, species assumed): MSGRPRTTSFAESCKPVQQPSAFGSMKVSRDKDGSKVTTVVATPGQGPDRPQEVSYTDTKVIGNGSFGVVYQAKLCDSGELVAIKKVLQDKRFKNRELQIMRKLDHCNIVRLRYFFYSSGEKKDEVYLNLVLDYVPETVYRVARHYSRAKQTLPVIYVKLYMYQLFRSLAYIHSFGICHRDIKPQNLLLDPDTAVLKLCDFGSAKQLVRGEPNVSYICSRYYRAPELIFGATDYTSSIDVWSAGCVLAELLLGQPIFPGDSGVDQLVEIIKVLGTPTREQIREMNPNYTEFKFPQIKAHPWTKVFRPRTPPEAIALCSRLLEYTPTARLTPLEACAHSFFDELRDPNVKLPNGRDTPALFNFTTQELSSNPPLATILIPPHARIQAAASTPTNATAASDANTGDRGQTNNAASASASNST
For the next experiment, the system named is pTau. Briefly: pTau assay. It counts as cell-based.

Sequence of GSK3α (P49840 whole entry, species assumed): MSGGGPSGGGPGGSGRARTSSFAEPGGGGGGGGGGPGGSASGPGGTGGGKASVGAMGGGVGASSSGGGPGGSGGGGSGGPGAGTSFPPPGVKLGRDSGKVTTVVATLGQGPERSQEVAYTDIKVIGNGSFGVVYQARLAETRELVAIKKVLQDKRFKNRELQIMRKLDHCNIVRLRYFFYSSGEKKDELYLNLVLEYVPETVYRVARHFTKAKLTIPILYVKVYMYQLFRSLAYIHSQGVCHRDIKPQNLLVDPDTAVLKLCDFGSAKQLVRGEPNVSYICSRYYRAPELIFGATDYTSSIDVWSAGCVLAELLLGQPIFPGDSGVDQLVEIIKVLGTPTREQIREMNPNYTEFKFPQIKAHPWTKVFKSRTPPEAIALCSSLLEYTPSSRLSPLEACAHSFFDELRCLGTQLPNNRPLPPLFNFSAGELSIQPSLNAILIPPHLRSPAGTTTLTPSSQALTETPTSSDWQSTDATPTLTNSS
Description for GSK3β: The kinase assay was performed in V-bottom 384-well plates. […] The reaction was incubated at room temperature for 20 hours and terminated by adding 45 μl of 35 mM EDTA to each sample. The reaction mixture was analyzed on the Caliper LabChip3000 (Caliper, Hopkinton, Mass.) by electrophoretic separation of the unphosphorylated substrate and phosphorylated product. […] Compounds were dissolved at 10 mM in dimethylsulfoxide (DMSO) and evaluated at eleven concentrations. IC50 values were derived by non-linear regression analysis.

On to `CS(=O)(=O)c1ccncc1NC(=O)c1ccnn2cc(-c3ccccc3)nc12` [Example 5, N-(4-(Methylsulfonyl)pyridin-3-yl)-2-phenylimidazo[1,2-b]pyridazine-8-carboxamide], for which the IC50 at GSK3α turned out to be 0.4 nM; at GSK3β, 1.5 nM; in the experiment on pTau, 120 nM.

Regarding `CC(C)Oc1ccncc1NC(=O)c1ccnn2c(NC(=O)C3CC3)cnc12` [Example 46, 3-(Cyclopropanecarboxamido)-N-(4-isopropoxypyridin-3-yl)imidazo[1,2-b]pyridazine-8-carboxamide], the IC50 on GSK3α came out at 51 nM; on GSK3β it was 6 nM; in the experiment on pTau it was 5100 nM.

With `O=C(Nc1cnc(Cl)cc1N1CCC(F)(F)CC1)c1ccnn2cc(-c3ccccc3)nc12` [Example 22, N-(6-Chloro-4-(4,4-difluoropiperidin-1-yl)pyridin-3-yl)-2-phenylimidazo[1,2-b]pyridazine-8-carboxamide], the IC50 is 2.9 nM on GSK3α, 14 nM at GSK3β and 2000 nM with pTau.

As to `O=C(Nc1cnccc1N1CCC(F)(F)CC1)c1ccnn2cc(C3CC3)nc12` [Example 31, 2-Cyclopropyl-N-(4-(4,4-difluoropiperidin-1-yl)pyridin-3-yl)imidazo[1,2-b]pyridazine-8-carboxamide], the IC50 at GSK3α stood at 0.2 nM; on GSK3β it was 0.4 nM; in the experiment with pTau, 120 nM.

As for `O=C(Nc1cnccc1-c1ccc(F)cc1)c1ccnn2cc(C3CC3)nc12` [Example 30, 2-Cyclopropyl-N-(4-(4-fluorophenyl)pyridin-3-yl)imidazo[1,2-b]pyridazine-8-carboxamide], the IC50 was determined as 0.4 nM on GSK3α, 1.9 nM at GSK3β and 380 nM in the experiment on pTau.

Take `N#CC1CCN(c2ccncc2NC(=O)c2ccnn3cc(-c4ccccc4)nc23)CC1` [Example 10, N-(4-(4-Cyanopiperidin-1-yl)pyridin-3-yl)-2-phenylimidazo[1,2-b]pyridazine-8-carboxamide]: the values for the IC50 on GSK3α and on GSK3β were 0.1 nM and 0.2 nM, respectively.

Consider `CC1CN(c2ccncc2NC(=O)c2ccnn3c(NCC4CC4)cnc23)CCO1` (centres unmarked) [Example 45, 3-((Cyclopropylmethyl)amino)-N-(4-(2-methylmorpholino)pyridin-3-yl)imidazo[1,2-b]pyridazine-8-carboxamide], for which the results for the IC50 at GSK3α, at GSK3β and in the experiment on pTau were 1.6 nM, 5.2 nM and 140 nM, respectively.

Regarding `O=C(Nc1cnccc1N1CCCCC1)c1ccnn2ccnc12` [Example 27, N-(4-(Piperidin-1-yl)pyridin-3-yl)imidazo[1,2-b]pyridazine-8-carboxamide], the IC50 on GSK3α was determined as 11.4 nM; at GSK3β, 19.8 nM; with pTau, 760 nM.

Take `C[C@H]1COCCN1c1ccncc1NC(=O)c1ccnn2cc(-c3ccccc3)nc12` [Example 18, (S)—N-(4-(3-Methylmorpholino)pyridin-3-yl)-2-phenylimidazo[1,2-b]pyridazine-8-carboxamide]: the values for the IC50 at GSK3α, at GSK3β and in the experiment with pTau were 0.3 nM, 0.3 nM and 5.7 nM, respectively.

With `CC(C)Oc1ccncc1NC(=O)c1ccnn2cc(-c3ccccc3)nc12` [Example 3, N-(4-Isopropoxypyridin-3-yl)-2-phenylimidazo[1,2-b]pyridazine-8-carboxamide], the figures for the IC50 at GSK3α, at GSK3β and with pTau were 0.4 nM, 0.7 nM and 83 nM, respectively.

For the compound `Cc1ccncc1NC(=O)c1ccnn2cc(-c3ccccc3)nc12` [Example 2, N-(4-Methylpyridin-3-yl)-2-phenylimidazo[1,2-b]pyridazine-8-carboxamide], the IC50 on GSK3α turned out to be 0.8 nM; on GSK3β it was 3.5 nM; in the experiment with pTau it was 250 nM.

In the case of `O=C(Nc1cnc(F)cc1N1CCC(F)(F)CC1)c1ccnn2cc(-c3ccccc3)nc12` [Example 20, N-(4-(4,4-Difluoropiperidin-1-yl)-6-fluoropyridin-3-yl)-2-phenylimidazo[1,2-b]pyridazine-8-carboxamide], the IC50 on GSK3α turned out to be 0.6 nM; at GSK3β, 2.3 nM; with pTau, 160 nM.

With `O=C(Nc1cnccc1-c1ccccc1)c1ccnn2c(NCC3CC3)cnc12` [Example 42, 3-((Cyclopropylmethyl)amino)-N-(4-phenylpyridin-3-yl)imidazo[1,2-b]pyridazine-8-carboxamide], the IC50 on GSK3α came out at 3.2 nM; at GSK3β, 3.4 nM; in the experiment on pTau it was 320 nM.

As for `O=C(Nc1cccnc1)c1ccnn2c(NCC3CC3)cnc12` [Example 39, 3-((Cyclopropylmethyl)amino)-N-(pyridin-3-yl)imidazo[1,2-b]pyridazine-8-carboxamide], the IC50 at GSK3α was 900 nM; at GSK3β, 220 nM; with pTau it was > 10000 nM.

Regarding `C[C@@H]1COCCN1c1ccncc1NC(=O)c1ccnn2cc(-c3ccccc3)nc12` [Example 17, (R)—N-(4-(3-Methylmorpholino)pyridin-3-yl)-2-phenylimidazo[1,2-b]pyridazine-8-carboxamide], the IC50 on GSK3α was determined as 1 nM; at GSK3β it was 3.4 nM; in the experiment on pTau, 180 nM.

Take `CC1CN(c2cc(F)ncc2NC(=O)c2ccnn3cc(-c4ccccc4)nc23)CCO1` (centres unmarked) [Example 21, N-(6-fluoro-4-(2-methylmorpholino)pyridin-3-yl)-2-phenylimidazo[1,2-b]pyridazine-8-carboxamide]: the IC50 was found to be 0.2 nM at GSK3α, 0.6 nM on GSK3β and 140 nM in the experiment on pTau.

As for `O=C(Nc1cnccc1-c1ccc(F)cc1)c1ccnn2cc(-c3ccccc3)nc12` [Example 7, N-(4-(4-Fluorophenyl)pyridin-3-yl)-2-phenylimidazo[1,2-b]pyridazine-8-carboxamide], the IC50 was determined as 0.6 nM at GSK3α and 1.6 nM on GSK3β.

For the compound `CC1CN(c2ccncc2NC(=O)c2ccnn3cc(-c4ccccc4)nc23)CCO1` (single isomer, unassigned) [Example 15, N-(4-(2-Methylmorpholino)pyridin-3-yl)-2-phenylimidazo[1,2-b]pyridazine-8-carboxamide], the IC50 on GSK3α came to 0.09 nM; on GSK3β, 0.2 nM; in the experiment with pTau, 9.2 nM.

As to `O=C(Nc1cnccc1N1CCOCC1)c1ccnn2cc(-c3ccc(C(F)(F)F)cc3)nc12` [Example 25, N-(4-Morpholinopyridin-3-yl)-2-(4-(trifluoromethyl)phenyl)imidazo[1,2-b]pyridazine-8-carboxamide], the results for the IC50 on GSK3α, on GSK3β and in the experiment on pTau were 0.2 nM, 0.8 nM and 49 nM, respectively.

`O=C(Nc1cccnc1)c1ccnn2cc(-c3ccccc3)nc12` [Example 1, 2-Phenyl-N-(pyridin-3-yl)imidazo[1,2-b]pyridazine-8-carboxamide] registered an IC50 in the experiment on pTau of 660 nM.

With `CC1CN(c2ccncc2NC(=O)c2ccnn3cc(C4CC4)nc23)CCO1` (centres unmarked) [Example 32, 2-Cyclopropyl-N-(4-(2-methylmorpholino)pyridin-3-yl)imidazo[1,2-b]pyridazine-8-carboxamide], the IC50 at GSK3α is 0.8 nM; on GSK3β, 2.6 nM; in the experiment on pTau it was 60 nM.

Take `O=C(Nc1cnccc1N1CCC(F)(F)CC1)c1ccnn2cc(C3=CCCCC3)nc12` [Example 34, 2-(Cyclohex-1-en-1-yl)-N-(4-(4,4-difluoropiperidin-1-yl)pyridin-3-yl)imidazo[1,2-b]pyridazine-8-carboxamide]: the IC50 on GSK3α was 0.1 nM; at GSK3β, 0.4 nM; with pTau it was 28 nM.

For the compound `CC1CN(c2ccncc2NC(=O)c2ccnn3cc(-c4ccccc4)nc23)CCO1` (single isomer, unassigned) [Example 16, N-(4-(2-Methylmorpholino)pyridin-3-yl)-2-phenylimidazo[1,2-b]pyridazine-8-carboxamide], the IC50 was 0.3 nM at GSK3α, 0.8 nM on GSK3β and 86 nM in the experiment with pTau.

As for `O=C(Nc1cnccc1N1CCOCC1)c1ccnn2cc(-c3cccnc3)nc12` [Example 36, N-(4-Morpholinopyridin-3-yl)-2-(pyridin-3-yl)imidazo[1,2-b]pyridazine-8-carboxamide], the figures for the IC50 on GSK3α and on GSK3β were 0.4 nM and 1.3 nM, respectively.

Turning to `CC1CN(c2ccncc2NC(=O)c2ccnn3cc(C4=CCCCC4)nc23)CCO1` (centres unmarked) [Example 35, 2-(Cyclohex-1-en-1-yl)-N-(4-(2-methylmorpholino)pyridin-3-yl)imidazo[1,2-b]pyridazine-8-carboxamide], the IC50 at GSK3α was 1 nM; at GSK3β, 1.6 nM; with pTau it was 160 nM.

Regarding `O=C(Nc1cnccc1N1CCC(F)(F)CC1)c1ccnn2c(NCC3CC3)cnc12` [Example 43, 3-((Cyclopropylmethyl)amino)-N-(4-(4,4-difluoropiperidin-1-yl)pyridin-3-yl)imidazo[1,2-b]pyridazine-8-carboxamide], the IC50 at GSK3α came to 2 nM; on GSK3β it was 1.1 nM; in the experiment on pTau it was 41 nM.

For the compound `CC1CN(c2ccncc2NC(=O)c2ccnn3ccnc23)CCO1` (centres unmarked) [Example 29, N-(4-(2-Methylmorpholino)pyridin-3-yl)imidazo[1,2-b]pyridazine-8-carboxamide], the IC50 on GSK3α was 3.2 nM; on GSK3β it was 3.8 nM; with pTau, 250 nM.

With `O=C(Nc1cnccc1N1CCCCC1)c1ccnn2cc(-c3ccccc3)nc12` [Example 9, 2-Phenyl-N-(4-(piperidin-1-yl)pyridin-3-yl)imidazo[1,2-b]pyridazine-8-carboxamide], the IC50 at GSK3α came out at 0.2 nM; at GSK3β, 1.1 nM.

With `COc1cncc(NC(=O)c2ccnn3cc(-c4ccccc4)nc23)c1` [Example 19, N-(5-Methoxypyridin-3-yl)-2-phenylimidazo[1,2-b]pyridazine-8-carboxamide], the IC50 on GSK3β was 37 nM; in the experiment on pTau, 3200 nM.
